Reference: US20220184032A1, “INDOLINE DERIVATIVES FOR TREATMENT AND/OR PREVENTION OF FIBROSIS DISEASES” (Taipei Medical University, priority 2015, published 2022)
Read-outs that look alike come from different tables or passages of the source.

What was measured:
[1] = tested on: CHO
[2] = tested on: Salmonella typhimurium TA98; test: Ames test, TA98
Procedure: (§1) Two histidine auxotrophic mutants (TA98 and TA100) of Salmonella typhimurium were used. Test strains were obtained from the frozen working stock vial and thawed at room temperature. A 0.2 mL aliquot was inoculated into 25 mL nutrient broth medium and then incubated at 35-37° C. with shaking (120 rpm) for 16-18 hours. The test substance was dissolved in DMSO with 10-fold dilutions to obtain 4 stock concentrations at 30,000, 3,000, 300 and 30 μg/mL. Rat liver microsome enzyme homogenate (S9) mixture was prepared containing 8 mM MgCl2, 33 mM KCl, 4 mM NADP, 5 mM glucose-6-phosphate, 100 mM NaH2PO4 (pH 7.4) and 4% (v/v) Aroclor 1254-induced male rat liver microsome enzyme homogenate (S9). A […] aliquot of test compound stock solution was combined with 0.1 mL strain culture and with 0.5 mL rat liver enzyme homogenate (S9) mixture or 0.5 mL PBS, and then the mixture was incubated at 35-37° C. with shaking (120 rpm) for 20 min. Molten top agar (2 mL containing 0.05 mM histidine and 0.05 mM biotin) was added, and then the mixture was poured onto the surface of a minimal glucose agar plate (30 mL of bottom agar per petri plate) to obtain final test substance concentrations at 3000, 300, 30 and 3μg/plate. The plates were incubated at 37° C. for 72 hours, and then the numbers of His+ revertant colonies were counted. Treatments resulting in a three-fold increase (≥3×) in revertant colonies compared to the vehicle control were considered mutagenic. Treatments that reduced the colony counts to ≤50% of the vehicle control were considered cytotoxic. Assays were performed in triplicate.

[3] = tested on: Salmonella typhimurium TA100; test: Ames test, TA100
Procedure: as §1

[4] = tested on: BLM-induced lung fibrosis; test: Bleomycin (BLM)-induced lung fibrosis mice model, preventive model; format: in vivo; details: days 1 to 21 after BLM
Procedure: (§2) In preventive model, C57BL/6JNarl mice (8 weeks) were treated with bleomycin (BLM, 0.05 U/50 μl) or PBS (50 μl) by endotracheal administration. TMU-C-0012 (25, 50, 100 mg/kg/day, q.d.) and dexamethasone (0.5 mg/kg/day, q.d.) were administered orally to bleomycin-treated mice from 1 to 21 days after BLM treatment. On day 21, the mice were sacrificed and, the histologic analysis of lung tissue was performed by hematoxylin-eosin (H&E) staining (original magnification, ×100). In therapeutic model, C57BL/6JNarl mice (8 weeks) were treated with bleomycin (BLM, 0.05 U/50 μl) or PBS (50 μl) by endotracheal administration. TMU-C-0012 (25, 50, 100 mg/kg/day, q.d.) and pirfenidone (200 mg/kg/day, q.d.) were administered orally to bleomycin-treated mice from 10 to 38 days after BLM treatment. On day 39, the mice were sacrificed, and the histologic analysis of lung tissue was performed by hematoxylin-eosin (H&E) staining (original magnification, ×100).

[5] = tested on: BLM-induced lung fibrosis; test: Bleomycin (BLM)-induced lung fibrosis mice model, therapeutic model; format: in vivo; details: days 10 to 38 after BLM
Procedure: as §2

[6] = tested on: OVA-induced lung fibrosis; test: OVA lung fibrosis mice model; format: in vivo; details: weeks 4 to 12
Procedure: C57BL/6JNarl mice (8 weeks) were treated with OVA (50 μg/50 μl/day) or PBS (50 μl/day) by i.p. injection for 4 weeks. Then, mice were exposure of OVA (5% aerosol exposure) or PBS (aerosol exposure) for 8 weeks. TMU-C-0012 (25 mg/kg/day, q.d.) and dexamethasone (25 mg/kg/day, q.d.) were administered orally to OVA-injected mice from 4 weeks to 12 weeks. On weeks 12, the mice were sacrificed, and the histologic analysis of lung tissue was performed by hematoxylin-eosin (H&E) staining (original magnification, ×100).

[7] = tested on: CC14-induced liver fibrosis; test: CC14-induced liver fibrosis in mice; format: in vivo; details: weeks 2 to 6
Procedure: C57BL/6JNarl mice (8 weeks) were treated with CC14 (1 μl/μg/BW, q.w.) or PBS (1 μl/μg/BW, q.w.) by i.p. injection for 6 weeks. TMU-C-0012 (25, 50, 100 mg/kg/day, q.d.) and pirfenidone (250 mg/kg/day, q.d.) were administered orally to CC14-injected mice from 2 weeks to 6 weeks. On day 43, the mice were sacrificed, and the α-SMA analysis of liver tissue was performed by IHC staining (original magnification, ×100).

[8] = in vitro; details: Chinese hamster, CHO cells with S9, % Cytotoxicity Cell Numbers; for cytotoxicity at 31 µM: 3.1E−05 M
[9] = reference compound, first section (CHO + S9, HCA), 3.6E−05 M
[10] = TA98, Without S9, 3000 μg/plate
[11] = TA100, Without S9, 300 μg/plate
[12] = TA100, Without S9, 3000 μg/plate
[13] = first section (CHO + S9, HCA), 1.3E−04 M
[14] = first section (CHO + S9, HCA), 2.5E−04 M
[15] = first section (CHO + S9, HCA), 3.1E−05 M
[16] = first section (CHO + S9, HCA), 5.0E−04 M
[17] = first section (CHO + S9, HCA), 6.3E−05 M
[18] = second section (CHO + S9, HCA), 1.6E−05 M
[19] = second section (CHO + S9, HCA), 3.1E−05 M
[20] = second section (CHO + S9, HCA), 7.8E−06 M

With `O=P1(N(CCCl)CCCl)NCCCO1` (stereo not shown) [Cyclophosphamide, reference compound] the “% Cytotoxicity CBPI Index” value [1, 9] was 46.3%, the “% Micronucleated Cells” value [1, 9] was 5.31% and the “Test Result” value [1, 9] was “+ (p < 0.05 by t-test and % of micronucleated cells at least 3-fold higher than background levels.)”.
In the case of `CO[C@@]12[C@H](COC(N)=O)C3=C(C(=O)C(C)=C(N)C3=O)N1C[C@@H]1N[C@@H]12` [Mitomycin C, reference compound], the “% Micronucleated Cells” value ([1]; reference compound, second section (CHO + S9, HCA), 3.0E−07 M) is reported as 4.38%.
With `O=C(/C=C/c1ccc2c(c1)CCN2S(=O)(=O)c1ccccc1)NO` [TMU-C-0012, 3-(1-Benzenesulfonyl-2,3-dihydro-1H-indol-5-yl)-N-hydroxyacrylamide] the Cytotoxicity ([2]; TA98, With S9, 3 μg/plate) was “−”, the Mutagenicity ([2]; TA98, With S9, 3 μg/plate) was “−” and the Cytotoxicity ([2]; TA98, With S9, 30 μg/plate) was “−”. The Mutagenicity ([2]; TA98, With S9, 30 μg/plate) was “−”, the Cytotoxicity ([2]; TA98, With S9, 300 μg/plate) was “−” and the Mutagenicity ([2]; TA98, With S9, 300 μg/plate) was “−”. For the same molecule, the Cytotoxicity ([2]; TA98, With S9, 3000 μg/plate) was “−”, the Mutagenicity ([2]; TA98, With S9, 3000 μg/plate) was “−” and the Cytotoxicity ([2]; TA98, Without S9, 3 μg/plate) was “−”. For the same molecule, the Mutagenicity ([2]; TA98, Without S9, 3 μg/plate) was “−”, the Cytotoxicity ([2]; TA98, Without S9, 30 μg/plate) was “−” and the Mutagenicity ([2]; TA98, Without S9, 30 μg/plate) was “−”. For the same molecule, the Cytotoxicity ([2]; TA98, Without S9, 300 μg/plate) was “−”, the Mutagenicity ([2]; TA98, Without S9, 300 μg/plate) was “−” and the Cytotoxicity [2, 10] was “−”. The Mutagenicity [2, 10] was “−”, the “genotoxicity (Ames test results)” value ([2]; overall Ames test result, TA98 and TA100, with and without S9) was “negative” and the Cytotoxicity ([3]; TA100, With S9, 3 μg/plate) was “−”. The Mutagenicity ([3]; TA100, With S9, 3 μg/plate) was “−”, the Cytotoxicity ([3]; TA100, With S9, 30 μg/plate) was “−” and the Mutagenicity ([3]; TA100, With S9, 30 μg/plate) was “−”. The Cytotoxicity ([3]; TA100, With S9, 300 μg/plate) was “−”, the Mutagenicity ([3]; TA100, With S9, 300 μg/plate) was “−” and the Cytotoxicity ([3]; TA100, With S9, 3000 μg/plate) was “−”. The Mutagenicity ([3]; TA100, With S9, 3000 μg/plate) was “−”, the Cytotoxicity ([3]; TA100, Without S9, 3 μg/plate) was “−” and the Mutagenicity ([3]; TA100, Without S9, 3 μg/plate) was “−”. The Cytotoxicity ([3]; TA100, Without S9, 30 μg/plate) was “−”, the Mutagenicity ([3]; TA100, Without S9, 30 μg/plate) was “−” and the Cytotoxicity [3, 11] was “−”. The Mutagenicity [3, 11] was “−”, the Cytotoxicity [3, 12] was “−” and the Mutagenicity [3, 12] was “−”. The “inhibition of BLM-induced lung fibrosis” value ([4]; 25, 50, 100 mg/kg/day q.d. orally, H&E lung histology day 21) was “inhibits BLM-induced lung fibrosis in a dose-dependent manner”, the “efficacy in the inhibition compared with dexamethasone” value ([4]; dexamethasone 0.5 mg/kg/day q.d. orally) was “higher than dexamethasone” and the “inhibition of BLM-induced lung fibrosis” value ([5]; 25, 50, 100 mg/kg/day q.d. orally, H&E lung histology day 39) was “inhibits BLM-induced lung fibrosis in a dose-dependent manner”. The “efficacy in inhibition compared with pirfenidone” value ([5]; pirfenidone 200 mg/kg/day q.d. orally) was “higher than pirfenidone”, the “inhibition of OVA-induced lung fibrosis” value ([6]; 25 mg/kg/day q.d. orally, H&E lung histology week 12) was “inhibits OVA-induced lung fibrosis in a dose dependent manner” and the “efficacy in inhibition compared with dexamethasone” value ([6]; dexamethasone 25 mg/kg/day q.d. orally) was “higher than dexamethasone”. The “inhibition on CC14-induced liver fibrosis” value ([7]; 25, 50, 100 mg/kg/day q.d. orally, α-SMA IHC of liver day 43) was “dose-dependent”, the “efficacy in inhibition compared with pirfenidone” value ([7]; pirfenidone 250 mg/kg/day q.d. orally) was “higher than pirfenidone” and the “% Cytotoxicity CBPI Index” value [1, 13] was 57.4%. The “% Micronucleated Cells” value [1, 13] was 1.45%, the “% Cytotoxicity CBPI Index” value [1, 14] was 62.2% and the “% Micronucleated Cells” value [1, 14] was 1.76%. For the same molecule, the “% Cytotoxicity CBPI Index” value [1, 15] was 41.5%, the “% Micronucleated Cells” value [1, 15] was 1.64% and the “% Cytotoxicity CBPI Index” value [1, 16] was 68.8%. For the same molecule, the “% Micronucleated Cells” value [1, 16] was 1.94%, the “% Cytotoxicity CBPI Index” value [1, 17] was 47.3% and the “% Micronucleated Cells” value [1, 17] was 1.26%. The “genotoxicity (micronucleus assay)” value ([1]; overall result of the assay) was “negative”, the Flat ([1]; second section (CHO + S9, HCA), 1.3E−04 M) was “CYTO (High cytotoxicity resulting in an insufficient number of scored cells (≥80% cytotoxicity))” and the “% Cytotoxicity CBPI Index” value [1, 18] was 53.1%. For the same molecule, the “% Micronucleated Cells” value [1, 18] was 1.35%, the Flat ([1]; second section (CHO + S9, HCA), 2.5E−04 M) was “CYTO (High cytotoxicity resulting in an insufficient number of scored cells (≥80% cytotoxicity))” and the “% Cytotoxicity CBPI Index” value [1, 19] was 58.8%. The “% Micronucleated Cells” value [1, 19] was 1.25%, the Flat ([1]; second section (CHO + S9, HCA), 6.3E−05 M) was “CYTO (High cytotoxicity resulting in an insufficient number of scored cells (≥80% cytotoxicity))” and the “% Cytotoxicity CBPI Index” value [1, 20] was 26.7%. The “% Micronucleated Cells” value [1, 20] was 1.29%, the cytotoxicity at 0.00013 M [8, 13] was 37.6% and the cytotoxicity at 0.00025 M [8, 14] was 51.8%. For the same molecule, the cytotoxicity at 31 µM ([8]; first section (CHO + S9, HCA)) was 19.1%, the cytotoxicity at 0.0005 M [8, 16] was 61.7% and the cytotoxicity at 63 µM [8, 17] was 31.9%. For the same molecule, the cytotoxicity at 16 µM [8, 18] was 60.4%, the cytotoxicity at 31 µM ([8]; second section (CHO + S9, HCA)) was 69% and the cytotoxicity at 7.8 µM [8, 20] was 42.2%.
